Measurements from patent publication US20250136555A1 (HARBIN MEDISAN PHARMACEUTICAL CO., LTD., priority 2022, published 2025).
Where two headings read alike, the source gives them in different places.

What was measured:
Type in all cases: cell-based
PPARδ = target: T1, PPARδ (Homo sapiens, UniProt Q03181); experiment: GAL4 hybrid reporter gene method, PPARδ agonistic activity
T1 construct: expressed in transfected cells; host or cells: COS-7
T1 sequence (Q03181 211-439 limits assumed): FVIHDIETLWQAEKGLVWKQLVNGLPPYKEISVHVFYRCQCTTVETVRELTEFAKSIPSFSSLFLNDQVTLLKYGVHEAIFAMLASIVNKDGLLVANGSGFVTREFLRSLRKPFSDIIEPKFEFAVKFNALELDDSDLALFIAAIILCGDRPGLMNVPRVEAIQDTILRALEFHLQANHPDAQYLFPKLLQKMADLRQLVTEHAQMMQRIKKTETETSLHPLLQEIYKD
Protocol: (§1) Cos-7 cells (African green monkey kidney fibroblasts, commonly used tool cells) were cultured in a 10-cm cell culture dish with a DMEM complete medium containing 10% fetal bovine serum. When growing at a density of about 70%, the cells were ready for transfection. […] The working solution described above was then combined with 8 mL of the DMEM complete medium, and the mixture was added to the cell culture dish for cell transfection. After 4 h of transfection, the cells were digested, resuspended, and seeded into a 96-well plate at 25,000 cells/well. […] 10 μL of a reporter gene detection solution (purchased from Shanghai Beyotime Biological Tech. Co., Ltd.) was added. After the resulting solution was mixed and reacted, biological fluorescence was detected by using a multifunctional microplate reader, and corresponding half maximal effective concentration (EC50) values were calculated according to the detection values. […] Transfection working solutions for different nuclear receptors were prepared and added into COS-7 cells. The preparation method for the transfection working solution was as follows: the constructed pBIND-Gal4-PPARα (LBD) (or pBIND-Gal4-PPARδ (LBD) plasmid or pBIND-Gal4-PPARγ (LBD) plasmid or pBIND-Gal4-RARα (LBD) plasmid or pBIND-Gal4-RARγ (LBD) plasmid or pBIND-Gal4-RARβ (LBD) plasmid or pBIND-Gal4-RORα (LBD) plasmid or pBIND-Gal4-RORγ (LBD) plasmid or pBIND-Gal4-RORβ (LBD) plasmid or pBIND-Gal4-FXR (LBD) plasmid or pBIND-Gal4-RXRα.

PPARγ = target: T2, PPARγ (Homo sapiens, UniProt P37231); experiment: GAL4 hybrid reporter gene method, PPARγ agonistic activity
T2 construct: expressed in transfected cells; host or cells: COS-7
T2 sequence (P37231 238-503 limits assumed): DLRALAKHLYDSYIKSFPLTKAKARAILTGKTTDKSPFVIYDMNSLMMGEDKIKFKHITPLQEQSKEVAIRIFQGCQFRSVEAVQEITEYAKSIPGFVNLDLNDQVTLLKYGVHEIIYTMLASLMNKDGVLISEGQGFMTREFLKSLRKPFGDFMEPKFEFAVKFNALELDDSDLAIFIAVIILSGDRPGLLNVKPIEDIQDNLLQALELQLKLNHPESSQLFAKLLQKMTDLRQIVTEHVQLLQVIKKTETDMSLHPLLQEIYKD
Protocol: as §1

PPARα = target: T3, PPARα (Homo sapiens, UniProt Q07869); experiment: GAL4 hybrid reporter gene method, PPARα agonistic activity; details: Cos-7 cells, Gal4-PPARα (LBD); GW7647 10 nM = 100%; 16 h
T3 construct: expressed in transfected cells; host or cells: COS-7
T3 sequence (Q07869 239-466 limits assumed): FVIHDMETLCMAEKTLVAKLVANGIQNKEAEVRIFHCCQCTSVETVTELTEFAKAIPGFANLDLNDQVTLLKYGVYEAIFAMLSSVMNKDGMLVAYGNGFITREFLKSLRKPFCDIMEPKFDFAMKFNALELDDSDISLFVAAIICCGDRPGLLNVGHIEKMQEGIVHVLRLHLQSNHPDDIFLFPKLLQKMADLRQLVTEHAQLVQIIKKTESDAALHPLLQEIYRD

[1] = Cos-7 cells, Gal4-PPARδ (LBD), GW501516 10 nM = 100%, 16 h
[2] = Cos-7 cells, Gal4-PPARγ (LBD), Rosiglitazone 1 μM = 100%, 16 h

Compound	EC50 (PPARδ; [1]) [nM]	PPARδ EC50 (nM) (PPARδ; [1])	EC50 (PPARγ) [nM]	EC50 (PPARα) [nM]	EC50 (PPARδ) [nM]	EC50 (PPARγ; [2]) [nM]	PPARα EC50 (nM) (PPARα)
Cc1cc(CN2C(=O)CN(c3ccc(OC(F)(F)F)cc3)C2=O)cc(C)c1OC(C)(C)C(=O)O [Compound 3, 2-(4-((2,5-Dioxo-3-(4-(trifluoromethoxy)phenyl)imidazolidin-1-yl)methyl)-2,6-dimethylphenoxy)-2-methylpropionic Acid]	4.4	low nanomolar levels	4150	–	–	–	–
Cc1cc(CN2C(=O)N(c3ccc(C(F)(F)F)cc3)C(C)(C)C2=O)cc(C)c1OC(C)(C)C(=O)O [Compound 5, 2-(4-((4,4-Dimethyl-2,5-dioxo-3-(4-(trifluoromethyl)phenyl)imidazolin-1-yl)methyl)-2,6-dimethylphenoxy)-2-methylpropionic Acid]	60	–	–	252	–	–	–
Cc1cc(CN2C(=O)N(c3ccc(OC(F)(F)F)cc3)C(C)(C)C2=O)cc(C)c1OC(C)(C)C(=O)O [Compound 7]	–	–	–	668	176	–	–
Cc1cc(CN2C(=O)CN(c3ccc(C(F)(F)F)cc3)C2=O)ccc1OCC(=O)O [Compound 9, 2-(4-((2,5-Dioxo-3-(4-(trifluoromethyl)phenyl)imidazolidin-1-yl)methyl)-2-methylphenoxy)acetic Acid]	–	–	> 5000	994	976	–	–
CC(C)(Oc1ccc(CN2C(=O)CN(c3ccc(C(F)(F)F)cc3)C2=O)cc1C(F)(F)F)C(=O)O [Compound 11, 2-(4-((2,5-Dioxo-3-(4-(trifluoromethyl)phenyl)imidazolidin-1-yl)methyl)-2-(trifluoromethyl)phenoxy)-2-methylpropionic Acid]	–	–	2480	77.1	33.1	–	–
Cc1cc(CN2C(=O)CN(c3ccc(C(F)(F)F)cc3)C2=O)cc(Cl)c1OC(C)(C)C(=O)O [Compound 13, 2-(2-Chloro-4-((2,5-dioxo-3-(4-(trifluoromethyl)phenyl)imidazolidin-1-yl)methyl)-6-methylphenoxy)-2-methylpropionic Acid]	–	–	1290	1.2	10.8	–	–
CC(C)(Oc1c(Cl)cc(CN2C(=O)CN(c3ccc(C(F)(F)F)cc3)C2=O)cc1Cl)C(=O)O [Compound 17, 2-(2,6-Dichloro-4-((2,5-dioxo-3-(4-(trifluoromethyl)phenyl)imidazolidin-1-yl)methyl)phenoxy)-2-methylpropionic Acid]	24.8	–	–	–	–	–	–
CC(C)(Oc1c(Br)cc(CN2C(=O)CN(c3ccc(C(F)(F)F)cc3)C2=O)cc1Br)C(=O)O [Compound 19, 2-(2,6-Dibromo-4-((2,5-dioxo-3-(4-(trifluoromethyl)phenyl)imidazolidin-1-yl)methyl)phenoxy)-2-methylpropionic Acid]	23.6	–	–	2.2	–	–	–
CC(C)(Oc1c(F)cc(CN2C(=O)CN(c3ccc(C(F)(F)F)cc3)C2=O)cc1F)C(=O)O [Compound 21, 2-(4-((2,5-Dioxo-3-(4-(trifluoromethyl)phenyl)imidazolin-1-yl)methyl)-2,6-difluorophenoxy)-2-methylpropionic Acid]	101	–	> 5000	42.9	–	–	–
Cc1ccc(N2CC(=O)N(Cc3cc(C)c(OC(C)(C)C(=O)O)c(C)c3)C2=O)cc1 [Compound 23, 2-(4-((2,5-Dioxo-3-(4-methylphenyl)imidazolin-1-yl)methyl)-2,6-dimethylphenoxy)-2-methylpropionic Acid]	25.7	–	–	26.5	–	629	–
Cc1cc(CN2C(=O)CN(c3ccc(F)cc3)C2=O)cc(C)c1OC(C)(C)C(=O)O [Compound 25, 2-(4-((3-(4-Fluorophenyl)-2,5-dioxoimidazolin-1-yl)methyl)-2,6-dimethylphenoxy)-2-methylpropionic Acid]	72.3	–	–	101	–	3640	–
Cc1cc(CN2C(=O)CN(c3ccc(Cl)cc3)C2=O)cc(C)c1OC(C)(C)C(=O)O [Compound 27, 2-(4-((3-(4-Chlorophenyl)-2,5-dioxoimidazolin-1-yl)methyl)-2,6-dimethylphenoxy)-2-methylpropionic Acid]	–	–	–	17	–	1420	–
Cc1cc(N2CC(=O)N(Cc3cc(C)c(OC(C)(C)C(=O)O)c(C)c3)C2=O)ccc1C(F)(F)F [Compound 29, 2-(2,6-Dimethyl-4-((3-(3-methyl-4-(trifluoromethyl)phenyl)-2,5-dioxoimidazolin-1-yl)methyl)phenoxy)-2-methylpropionic Acid]	–	low nanomolar levels	736	1.4	1	–	low nanomolar levels
Cc1cc(CN2C(=O)CN(c3ccc(C(F)(F)F)c(F)c3)C2=O)cc(C)c1OC(C)(C)C(=O)O [Compound 31, 2-(2,6-Dimethyl-4-((3-(3-fluoro-4-(trifluoromethyl)phenyl)-2,5-dioxoimidazolin-1-yl)methyl)phenoxy)-2-methylpropionic Acid]	0.8	–	–	2.1	–	–	–
Cc1cc(CN2C(=O)CN(c3ccc(C(F)(F)F)c(Cl)c3)C2=O)cc(C)c1OC(C)(C)C(=O)O [Compound 33, 2-(2,6-Dimethyl-4-((3-(3-chloro-4-(trifluoromethyl)phenyl)-2,5-dioxoimidazolin-1-yl)methyl)phenoxy)-2-methylpropionic Acid]	1.7	low nanomolar levels	–	1	–	657	low nanomolar levels
Cc1cc(CN2C(=O)CN(c3ccccc3)C2=O)cc(C)c1OC(C)(C)C(=O)O [Compound 35, 2-(4-((2,5-Dioxo-3-phenylimidazolin-1-yl)methyl)-2,6-dimethylphenoxy)-2-methylpropionic Acid]	90.5	–	–	166	–	2100	–
Cc1cc(CN2C(=O)CN(c3ccc(C#N)cc3)C2=O)cc(C)c1OC(C)(C)C(=O)O [Compound 37, 2-(4-((3-(4-Cyanobenzene)-2,5-dioxoimidazolin-1-yl)methyl)-2,6-dimethylphenoxy)-2-methylpropionic Acid]	84.4	–	–	98.1	–	4060	–
COc1ccc(N2CC(=O)N(Cc3cc(C)c(OC(C)(C)C(=O)O)c(C)c3)C2=O)cc1 [Compound 39, 2-(4-((3-(4-Methoxyphenyl)-2,5-dioxoimidazolin-1-yl)methyl)-2,6-dimethylphenoxy)-2-methylpropionic Acid]	36.1	–	–	18.8	–	3370	–
Cc1cc(CN2C(=O)CN(c3ccc(-c4ccccc4)cc3)C2=O)cc(C)c1OC(C)(C)C(=O)O [Compound 41]	6.2	low nanomolar levels	–	0.9	–	630	low nanomolar levels
CSc1ccc(N2CC(=O)N(Cc3cc(C)c(OC(C)(C)C(=O)O)c(C)c3)C2=O)cc1 [Compound 43]	–	low nanomolar levels	–	–	–	–	low nanomolar levels
Cc1cc(CN2C(=O)CN(c3cccc(C(F)(F)F)c3)C2=O)cc(C)c1OC(C)(C)C(=O)O [Compound 45, 2-(4-((2,5-Dioxo-3-(3-(trifluoromethyl)phenyl)imidazolin-1-yl)methyl)-2,6-dimethylphenoxy)-2-methylpropionic Acid]	5.9	low nanomolar levels	–	3.8	–	996	low nanomolar levels
Cc1cc(CN2C(=O)CN(c3ccc(Br)cc3)C2=O)cc(C)c1OC(C)(C)C(=O)O [Compound 61, 2-(4-((3-(4-Bromophenyl)-2,5-dioxoimidazolin-1-yl)methyl)-2,6-dimethylphenoxy)-2-methylpropionic Acid]	–	–	–	3.9	–	1200	low nanomolar levels
Cc1cc(CN2C(=O)CN(c3ccc(C(F)(F)F)cc3)C2=O)cc(C)c1OC(C)C(=O)O (stereo not drawn) [Compound 63, 2-(4-((2,5-Dioxo-3-(4-(trifluoromethyl)phenyl)imidazolin-1-yl)methyl)-2,6-dimethylphenoxy)propionic Acid]	–	–	–	25.1	4	–	–
Cc1cc(CN2C(=O)CN(c3ccc(C(C)C)cc3)C2=O)cc(C)c1OC(C)(C)C(=O)O [Compound 65, 2-(4-((3-(4-Isopropylphenyl)-2,5-dioxoimidazolin-1-yl)methyl)-2,6-dimethylphenoxy)-2-methylpropionic Acid]	–	–	–	0.8	–	971	–
CCc1ccc(N2CC(=O)N(Cc3cc(C)c(OC(C)(C)C(=O)O)c(C)c3)C2=O)cc1 [Compound 75, 2-(4-(3-(4-Ethylphenyl)-2,5-dioxoimidazolidin-1-yl)methyl)-2,6-dimethylphenoxy-2-methylpropionic Acid]	6.3	low nanomolar levels	–	1	–	–	low nanomolar levels
Cc1cc(CN2C(=O)CN(Cc3ccc(C(F)(F)F)cc3)C2=O)cc(C)c1OC(C)(C)C(=O)O [Compound 93]	–	–	–	–	–	1490	–
